Assay [1] concerns CXCR4. The conditions noted are these: previous observations (Gao, 2018); cited from earlier work.
The subject of assay [2] is CR heteromerization partners of α1B/D-ARs (CCR1, CCR2, CXCR4). Nature of the assay: Chemotaxis assay, THP-1 cells, CR heteromerization partners of α1B/D-ARs taken together. The format is cell-based, human. The conditions noted are these: FIG. 17D-17F. The method, then: (§1) Cell migration was measured employing the Neuroprobe (Gaithersburg, MD, USA) ChemoTx® Disposable Chemotaxis System. A 96-well Boyden-chamber (30 μL/well, 8 μm pores, 1×10^5 pores/cm^2 pore density) was selected for all chemotaxis experiments. Bottom wells of the Boyden-chamber were loaded with 30 μL of test substances at various concentrations. Top wells of the membrane were loaded with 25 μL of THP-1 cells, THP-1_ADRA1B^KO, wild type THP-1 cells after clonal expansion (=control for THP-1_ADRA1B^KO) or freshly isolated monocytes (200 cells/μL). THP-1 cells were suspended in depleted RPMI1640 (0.5% HyClone™ fetal bovine serum, Sigma); Freshly isolated monocytes were suspended in RPMI1640 (0.5% human platelet poor plasma, Sigma). After 3 hours, transmigrated cells were counted utilizing the Cytation 1 plate reader (BioTek) by direct imaging in high contrast bright field (4×) and post-imaging particle analyses with Gen5 (v3.05) Imaging & Microscopy Software (BioTek). The chemotactic index (CI) was calculated as the ratio of cells that transmigrated in the presence versus the absence of the test solutions.

Another assay concerns CXCR1. Nature of the assay: Chemotaxis assay, THP-1 cells toward CXCL8 (CXCR1-mediated). To be noted: CXCL8 10 nM, FIG. 13B. The format is cell-based, human. The protocol: as §1
Assay [3] concerns the target T1, CCR2 (Homo sapiens, UniProt P41597). Nature of the assay: Chemotaxis assay, THP-1 cells toward CCL2 (CCR2-mediated). The format is cell-based. Set-up: host or cells: THP-1. To be noted: CCL2 10 nM. The method, then: as §1
The test system of the next assay is CCR1. Put plainly: Chemotaxis assay, THP-1 cells toward CCL23 (CCR1-mediated). The conditions noted are these: CCL23 10 nM, mean±SE, read-out: IC50 for inhibition of CCR1-mediated chemotaxis. The format is cell-based, human. The protocol:
as §1

In assay [4] the test system is CXCR4. Put plainly: Chemotaxis assay, THP-1 cells toward CXCL12 (CXCR4-mediated). The format is cell-based, human. To be noted: CXCL12 100 nM, mean±SE, read-out: IC50 for inhibition of CXCR4-mediated chemotaxis. The method, then: as §1
For assay [5], the system named is AVPR1A heteromerization partners CCR2, CCR8 and CXCR4. Nature of the assay: Chemotaxis assay, THP-1 cells, AVPR1A heteromerization partners CCR2, CCR8 and CXCR4. The format is cell-based. The conditions noted are these: Homo sapiens, FIG. 13A, 13C, read-out: IC50, inhibition of chemotaxis mediated via CCR2, CCR8 and CXCR4.
The target of assay [6] is T1, CCR2. Nature of the assay: BRET assay for β-arrestin recruitment, HEK293T with CCR2-Rluc and β-arrestin-YFP without α1b-AR. The format is cell-based. To be noted: 10 μM PE, PT or 100 nM INCB3284, FIG. 5C. The method, then:
β-arrestin recruitment was measured by BRET, as described (Armando, 2014; Berchiche, 2011). In brief, HEK293T cells were plated in a 6-well plate and transfected with 0.1 μg of CCR2-RluII and 1.9 μg β-arrestin-YFP with 0.1 μg pcDNA3.1 or α1b-AR. One day after transfection, cells were re-plated into 96-well poly-L lysine precoated plates. After overnight incubation, cells were replaced with 0.1% glucose/PBS. Coelenterazine H in a final concentration of 5 μM was added to cells and incubated at room temperature for 3 min. […] The BRET changes were calculated by subtracting the BRET signal of untreated cells.
Background: Bioluminescence resonance energy transfer reports proximity on the nanometre scale.

The target of assay [7] is T1, CCR2. Put plainly: Gαi activation assay (TRUPATH BRET), HEK293T cells transfected with CCR2 plus pcDNA3 (CCR2 alone). The format is cell-based. To be noted: cells transfected with CCR2 alone; 10 μM PE or PT; FIG. 4B, 4E. The method, then:
HEK293T cells were plated in a 6-well plate and transfected with 0.2 μg each of Gαi1-Rluc8, Gβ3 and Gγ9-GFP2 (Trupath) together with 0.2 μg of mouse or human CCR2 with either pcDNA3.1 or α1b-AR. One day after transfection, cells were trypsinized and replated to 96-well poly-L lysine precoated plates. After overnight incubation, cells were replaced with 0.1% glucose/PBS. Prolume Purple (NanoLight Tech.) or coelenterazine 400a in a final concentration of 5 μM were added in experiments with human or mouse CCR2, respectively, and incubated at room temperature for 3 min. Ligands at various concentrations were added to cells and incubated at room temperature for 5 min before luminescence was measured at 410 nm and 515 nm. […] The BRET changes were calculated by subtracting the BRET signal of untreated cells.

Assay [8] concerns THP-1 cells (CCR2-mediated Gαi signaling). Put plainly: Cyclic AMP measurement in forskolin-stimulated THP-1 cells. The format is cell-based, human. To be noted: forskolin-stimulated THP-1 cells; 1 μM PE, 1 μM PT or 100 nM NE; 15 min at 37° C.; FIG. 4G, 4H. The method, then: (§2) Cyclic AMP amounts were measured using the cAMP complete enzyme immunoassay kit, acetylated format (Enzo Life Sciences). 4×10^5 cells were incubated with forskolin/isobutylmethylxanthine (10 μM/0.5 mM final concentrations) in 0.1% BSA/10 mM Hepes-buffered RPMI and treated with CCL2 in the presence or absence of 1 μM PE, 1 μM PT or 100 nM NE at 37° C. for 15 min. The cells were lysed by incubating with 0.1 M HCl at room temperature for 20 min. The cAMP amounts in the lysate supernatant were measured following the manufacturer's instructions.

For a further assay, the system named is THP-1_ADRA1B^KO cells. Put plainly: Cyclic AMP measurement in forskolin-stimulated THP-1_ADRA1B^KO cells. The format is cell-based, human. To be noted: 100 nM CCL1, 15 min at 37° C.; FIG. 2B. The protocol:
as §2

This is an account of results in patent US20250213647A1, “CHEMOKINE RECEPTORS AND ALPHA1 ADRENERGIC RECEPTORS/VASOPRESSIN RECEPTORS 1A HETEROMERS AS DRUG TARGETS FOR DISEASE” (UNIVERSITY OF SOUTH FLORIDA, priority 2022, published 2025).

T1 sequence (P41597 whole entry): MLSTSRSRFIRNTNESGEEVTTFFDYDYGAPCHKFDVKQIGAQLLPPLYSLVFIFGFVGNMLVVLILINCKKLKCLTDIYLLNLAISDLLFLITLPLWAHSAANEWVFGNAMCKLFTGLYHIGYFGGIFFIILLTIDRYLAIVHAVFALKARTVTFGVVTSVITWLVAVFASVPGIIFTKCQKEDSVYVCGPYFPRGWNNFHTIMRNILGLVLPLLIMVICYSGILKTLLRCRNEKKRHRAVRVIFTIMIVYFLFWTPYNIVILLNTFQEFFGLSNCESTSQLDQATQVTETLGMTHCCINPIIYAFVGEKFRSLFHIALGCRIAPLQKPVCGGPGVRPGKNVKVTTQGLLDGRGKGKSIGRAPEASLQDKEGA

For `COc1cc2nc(N3CCN(C(=O)c4ccco4)[C@H]4CCCC[C@H]43)nc(N)c2cc1OC` (racemic) [cyclazosin], in the assay on CXCR4 [1], the “CXCR4-mediated chemotaxis of primary human vascular smooth muscle cells” value is “inhibit”.
In the case of `COc1ccccc1N1CCN(CCCNc2c(C)c(=O)n(C)c(=O)n2C)CC1` [5-Methylurapidil], the “CR-mediated chemotaxis (CCR1, CCR2 and CXCR4)” value in assay [2] is “did not affect”.
Take `NC(=O)CC[C@@H]1NC(=O)[C@H](Cc2ccccc2)NC(=O)[C@H](Cc2ccc(O)cc2)NC(=O)[C@@H](N)CSSC[C@@H](C(=O)N2CCC[C@H]2C(=O)N[C@@H](CCCN=C(N)N)C(=O)NCC(N)=O)NC(=O)[C@H](CC(N)=O)NC1=O` [AVP, arginine vasopressin]: in the assay on CXCR1, the “chemotaxis mediated by CXCR1” value is reported as “did not affect”.
With `COc1ccccc1N1CCN(CCN2C(=O)CC3(CCCC3)CC2=O)CC1` [BMY7378], the IC50 on CCR2 [3] (mean±SE, read-out: IC50 for inhibition of CCR2-mediated chemotaxis) came out at 0.93 ± 0.61 nM; in the assay with CCR1, 10.5 ± 0.91 nM; in the assay with CXCR4 [4], 2.87 ± 0.6 nM.
Take `Cc1nc2c([nH]1)-c1ccccc1N(C(=O)c1ccc(NC(=O)c3ccccc3-c3ccccc3)cc1)CC2` [Conivaptan]: the IC50 in assay [5] fell in the range of 0.037 to 0.218 nM.
`COc1ccc(C2(O)CCC(N3CC[C@@H](NC(=O)CNC(=O)c4cccc(C(F)(F)F)c4)C3)CC2)cn1` (stereo partly shown) [INCB3284]: the “inhibition of CCL2-induced chemotaxis” value against CCR2 [3] (FIG. 23E) was “more than 95%”. The “effect on the CCL2-induced BRET signal (CCR2-Rluc / β-arrestin-YFP)” value at CCR2 [6] is “could be inhibited”.
In the case of `NC[C@H](O)c1ccc(O)c(O)c1` [norepinephrine], at CCR2 [7], the “effect on CCL2-induced Gαi1 activation” value is listed as “did not affect”. For the same molecule, the “effect on the effects of CCL2 on cAMP production” value in assay [8] was “inhibited the effects of CCL2 on cAMP production”.
For the molecule `COc1cc2nc(N3CCN(C(=O)c4ccco4)CC3)nc(N)c2cc1OC` [prazosin], in the assay with CXCR4 [1], the “CXCR4-mediated chemotaxis of primary human vascular smooth muscle cells” value is “inhibit”.

B1: CCL1: Chemokine (C-C motif) ligand 1, selective agonist of CCR8 (protein, UniProt P22362 24-96, looked up)
C-C motif chemokine 1: KSMQVPFSRCCFSFAEQEIPLRAILCYRNTSSICSNEGLIFKLKRGKEACALDTVGWVQRHRKMLRHCPSKRK
For B1, the “inhibition of forskolin-stimulated cAMP production by CCL1, THP1 vs THP-1_ADRA1B^KO cells” value with THP-1_ADRA1B^KO cells is listed as “indistinguishable”.

What is called IC50 is the concentration that inhibits the measured activity by half.
